The subject of data set [1] is Cyperus serotinus. The experiment in a line: Herbicidal activity against Cyperus serotinus assessed as phytotoxic activity ratings (0- no effect to 5-complete killing rating scale) at 100 g/a measured after 3 weeks post compound treatment under green house conditions. Type of data set: functional.
The test system of data set [2] is Schoenoplectiella juncoides. The experiment in a line: Herbicidal activity against Schoenoplectiella juncoides var. Hotarui Ohwi assessed as phytotoxic activity ratings (0- no effect to 5-complete killing rating scale) at 100 g/a measured after 3 weeks post compound treatment under green house conditions. Type of data set: functional.
Another data set has as its system Cyperus difformis. Briefly: Herbicidal activity against Cyperus difformis assessed as phytotoxic activity ratings (0- no effect to 5-complete killing rating scale) at 100 g/a measured after 3 weeks post compound treatment under green house conditions. Type of data set: functional.
Another data set concerns Echinochloa oryzicola. The experiment in a line: Herbicidal activity against Echinochloa oryzicola assessed as phytotoxic activity ratings (0- no effect to 5-complete killing rating scale) at 100 g/a measured after 3 weeks post compound treatment under green house conditions. The class given is functional.
Data set [3] relates to Oryza sativa. The experiment in a line: Phytotoxicity against directly seeded Oryza sativa (rice) seedlings assessed as phytotoxic activity ratings (0- no effect to 5-complete killing rating scale) at 100 g/a measured after 3 weeks post compound treatment under green house conditions. Type of data set: organism-based. The conditions noted are these: in vivo, 504 h.
Data set [4] relates to Oryza sativa. Briefly: Phytotoxicity against transplanted Oryza sativa (rice) seedlings assessed as phytotoxic activity ratings (0- no effect to 5-complete killing rating scale) at 100 g/a measured after 3 weeks post compound treatment under green house conditions. Type of data set: organism-based. The conditions noted are these: in vivo, 504 h.
In data set [5] the test system is Cyperus serotinus. Briefly: Herbicidal activity against Cyperus serotinus assessed as phytotoxic activity ratings (0- no effect to 5-complete killing rating scale) at 3.1 to 100 g/a measured after 3 weeks post compound treatment under green house conditions. The class given is functional.

Activity calls are given as the source filed them. The rule behind the calls is not given here.

`C[C@H](NC(=O)Nc1cccc(C(F)(F)F)c1)c1ccccc1`: the Activity was determined as 0% with Cyperus serotinus [1]; 0% in data set [2]; 10% in the data set on Cyperus difformis; 10% in the data set with Echinochloa oryzicola; 0% in the data set with Oryza sativa [3]; 0% with Oryza sativa [4].

With `CCc1ccccc1NC(=O)N[C@@H](C)c1ccccc1`, the Activity in the data set on Cyperus serotinus [1] is recorded as 0%; in data set [2], 10%; in the data set with Cyperus difformis it was 40%; in the data set with Echinochloa oryzicola, 0%; with Oryza sativa [3], 0%; with Oryza sativa [4], 0%.

On to `CCc1ccc(NC(=O)N[C@@H](C)c2ccccc2)cc1`, for which the Activity (in the data set on Cyperus serotinus [1]; in data set [2]; in the data set on Cyperus difformis; in the data set with Echinochloa oryzicola; in the data set with Oryza sativa [3]; with Oryza sativa [4]) was 0% each time.

For the compound `C[C@H](NC(=O)Nc1ccccc1C(F)(F)F)c1ccccc1`, the Activity amounted to 0% in the data set on Cyperus serotinus [1]; 0% in data set [2]; 0% in the data set with Cyperus difformis; 10% in the data set on Echinochloa oryzicola; 0% in the data set on Oryza sativa [3]; 0% in the data set on Oryza sativa [4].

Consider `Cc1ccc(NC(=O)N[C@@H](C)c2ccccc2)cc1`, for which the Activity is listed as 0% with Cyperus serotinus [1]; 0% in data set [2]; 0% with Cyperus difformis; 40% with Echinochloa oryzicola; 0% with Oryza sativa [3]; 0% in the data set with Oryza sativa [4].

Regarding `C[C@@H](NC(=O)Nc1c(F)cccc1F)c1ccccc1`, the Activity with Cyperus serotinus [1] worked out at 40%; in data set [2], 40%; in the data set with Cyperus difformis, 40%; in the data set on Echinochloa oryzicola, 40%; with Oryza sativa [4], 0%.

Regarding `CCc1ccc(NC(=O)N[C@H](C)c2ccccc2)cc1`, the Activity came out at 40% in the data set with Cyperus serotinus [1]; 40% in data set [2]; 40% in the data set on Cyperus difformis; 0% with Echinochloa oryzicola; 0% in the data set with Oryza sativa [3]; 0% in the data set on Oryza sativa [4].

With `C[C@@H](NC(=O)Nc1ccccc1F)c1ccccc1`, the Activity is 40% in the data set on Cyperus serotinus [1]; 10% in data set [2]; 40% with Cyperus difformis; 10% in the data set with Echinochloa oryzicola; 10% in the data set on Oryza sativa [3]; 0% in the data set on Oryza sativa [4].

For `C[C@H](NC(=O)Nc1c(F)cccc1F)c1ccccc1`, the Activity (in the data set with Cyperus serotinus [1]; in data set [2]; in the data set with Cyperus difformis; with Echinochloa oryzicola; in the data set with Oryza sativa [3]; in the data set with Oryza sativa [4]) was 0% each time.

On to `Cc1cccc(NC(=O)N[C@H](C)c2ccccc2)c1`, for which the Activity in the data set on Cyperus serotinus [1] was determined as 80%; in data set [2] it was 80%; with Cyperus difformis it was 80%; with Echinochloa oryzicola, 40%; in the data set with Oryza sativa [3] it was 10%; in the data set on Oryza sativa [4], 0%.

Consider `COc1cccc(NC(=O)N[C@@H](C)c2ccccc2)c1`, for which the Activity (with Cyperus serotinus [1]; in data set [2]; in the data set with Cyperus difformis; in the data set with Echinochloa oryzicola; in the data set with Oryza sativa [3]; in the data set on Oryza sativa [4]) was 0% throughout.

For the compound `CCc1cccc(NC(=O)N[C@@H](C)c2ccccc2)c1`, the Activity with Cyperus serotinus [1] is on record as 0%; in data set [2], 40%; with Cyperus difformis, 40%; in the data set with Echinochloa oryzicola it was 0%; in the data set on Oryza sativa [3], 0%; in the data set on Oryza sativa [4] it was 0%.

`C[C@@H](NC(=O)Nc1ccccc1)c1ccccc1`: the Activity in the data set with Cyperus serotinus [1] is recorded as 80%; in data set [2], 10%; with Cyperus difformis it was 40%; with Echinochloa oryzicola, 40%; with Oryza sativa [3], 0%; with Oryza sativa [4], 0%.

Take `Cc1ccccc1NC(=O)N[C@@H](C)c1ccccc1`: the Activity (with Cyperus serotinus [1]; in data set [2]; in the data set with Cyperus difformis; with Echinochloa oryzicola; in the data set with Oryza sativa [3]; in the data set on Oryza sativa [4]) was 0% in each case.

On to `Cc1cc(F)ccc1NC(=O)N[C@H](C)c1ccccc1`, for which the Activity (in the data set on Cyperus serotinus [1]; in data set [2]; in the data set on Cyperus difformis; in the data set with Echinochloa oryzicola; in the data set on Oryza sativa [3]; with Oryza sativa [4]) was 0% each time.

`CC(C)c1ccccc1NC(=O)N[C@@H](C)c1ccccc1`: the Activity (in the data set on Cyperus serotinus [1]; in data set [2]; in the data set with Cyperus difformis; in the data set with Echinochloa oryzicola; in the data set on Oryza sativa [3]; in the data set on Oryza sativa [4]) was 0% each time.

In the case of `CCOC(=O)c1cccc(NC(=O)N[C@@H](C)c2ccccc2)c1`, the result in the data set with Cyperus serotinus [5] was inactive. In addition, the Activity (in data set [2]; in the data set on Cyperus difformis; in the data set on Echinochloa oryzicola; in the data set on Oryza sativa [3]; in the data set on Oryza sativa [4]) was 0% each time.

`C[C@H](NC(=O)Nc1ccc(F)cc1F)c1ccccc1`: in the data set with Cyperus serotinus [5], the result was inactive. Moreover, the Activity (in data set [2]; in the data set on Cyperus difformis; in the data set with Echinochloa oryzicola; in the data set on Oryza sativa [3]; in the data set with Oryza sativa [4]) was 0% each time.

Take `C[C@@H](NC(=O)Nc1ccccc1Br)c1ccccc1`: in the data set on Cyperus serotinus [5], the outcome was inactive. Moreover, the Activity in data set [2] came to 0%; with Cyperus difformis, 10%; in the data set on Echinochloa oryzicola, 0%; in the data set on Oryza sativa [3] it was 0%; in the data set with Oryza sativa [4], 0%.

With `COc1ccc(NC(=O)N[C@@H](C)c2ccccc2)cc1`, the outcome in the data set on Cyperus serotinus [5] was inactive. Moreover, the Activity (in data set [2]; in the data set on Cyperus difformis; in the data set on Echinochloa oryzicola; in the data set on Oryza sativa [3]; in the data set on Oryza sativa [4]) was 0% throughout.

Regarding `C[C@@H](NC(=O)Nc1ccc(Cl)c(Cl)c1)c1ccccc1`, in the data set with Cyperus serotinus [5], the result was inactive. For the same compound, the Activity (in data set [2]; with Cyperus difformis; in the data set with Echinochloa oryzicola; in the data set on Oryza sativa [3]; in the data set on Oryza sativa [4]) was 0% each time.

Take `C[C@@H](NC(=O)Nc1ccc(F)cc1F)c1ccccc1`: the outcome in the data set on Cyperus serotinus [5] was inactive. In addition, the Activity (in data set [2]; in the data set on Cyperus difformis; with Echinochloa oryzicola; in the data set on Oryza sativa [3]; in the data set with Oryza sativa [4]) was 0% in each case.

On to `C[C@H](NC(=O)Nc1ccc(F)c(F)c1)c1ccccc1`, for which the result in the data set on Cyperus serotinus [5] was inactive. For the same compound, the Activity (in data set [2]; in the data set on Cyperus difformis; in the data set on Echinochloa oryzicola; with Oryza sativa [3]; with Oryza sativa [4]) was 0% each time.

For `C[C@@H](NC(=O)Nc1cc(F)ccc1F)c1ccccc1`, the result in the data set on Cyperus serotinus [5] was inactive. Moreover, the Activity (in data set [2]; in the data set with Cyperus difformis; with Echinochloa oryzicola; with Oryza sativa [3]; in the data set with Oryza sativa [4]) was 0% throughout.

Regarding `C[C@@H](NC(=O)Nc1cccc(F)c1F)c1ccccc1`, the outcome in the data set with Cyperus serotinus [5] was inactive. Further, the Activity amounted to 0% in data set [2]; 10% with Cyperus difformis; 0% in the data set on Echinochloa oryzicola; 0% with Oryza sativa [3]; 0% with Oryza sativa [4].

Regarding `CCc1cccc(CC)c1NC(=O)N[C@@H](C)c1ccccc1`, the outcome in the data set on Cyperus serotinus [5] was inactive. The Activity (in data set [2]; with Cyperus difformis; with Echinochloa oryzicola; in the data set on Oryza sativa [3]; in the data set on Oryza sativa [4]) was 0% in each case.

With `CCCCCc1ccc(NC(=O)N[C@H](C)c2ccccc2)cc1`, the outcome with Cyperus serotinus [5] was inactive. Besides, the Activity (in data set [2]; in the data set on Cyperus difformis; in the data set with Echinochloa oryzicola; in the data set on Oryza sativa [3]; with Oryza sativa [4]) was 0% throughout.

Take `C[C@H](NC(=O)Nc1ccc(C(C)(C)C)cc1)c1ccccc1`: in the data set on Cyperus serotinus [5], the result was inactive. Moreover, the Activity stood at 0% in data set [2]; 0% with Cyperus difformis; 10% with Echinochloa oryzicola; 0% with Oryza sativa [3]; 0% in the data set with Oryza sativa [4].

As to `CC(=O)c1ccccc1NC(=O)N[C@H](C)c1ccccc1`, the outcome with Cyperus serotinus [5] was inactive. The Activity (in data set [2]; in the data set on Cyperus difformis; in the data set with Echinochloa oryzicola; in the data set with Oryza sativa [3]; in the data set on Oryza sativa [4]) was 0% throughout.

For the compound `C[C@H](NC(=O)Nc1cccc(C(F)(F)F)c1F)c1ccccc1`, the outcome in the data set on Cyperus serotinus [5] was inactive. For the same compound, the Activity (in data set [2]; with Cyperus difformis; in the data set on Echinochloa oryzicola; in the data set on Oryza sativa [3]; in the data set with Oryza sativa [4]) was 0% in each case.

Regarding `C[C@@H](NC(=O)Nc1ccc(Br)cc1)c1ccccc1`, the result in the data set with Cyperus serotinus [5] was inactive. Further, the Activity (in data set [2]; in the data set with Cyperus difformis; with Echinochloa oryzicola; in the data set on Oryza sativa [3]; with Oryza sativa [4]) was 0% throughout.

The values are drawn from ChEMBL document CHEMBL3046383, “Enantioselective Herbicidal Activity of Chiral α-Methylbenzylphenylureas against Cyperaceae and Echinochloa Paddy Weeds” (Biosci Biotechnol Biochem, 1998).
